In patent publication US8022206B2 (OSI Pharmaceuticals, LLC, priority 2008, dated 2011) one finds IC50 data, which are given here for 26 molecules.

Where two headings read alike, the source gives them in different places. Some results are limits rather than exact numbers.

The target of test [1] is RON (human) (Homo sapiens, UniProt Q04912). In words: RON (human) AlphaScreen kinase assay, Km of ATP. Format: biochemical. In outline: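 Reaction was started with enzyme and run 30 min at RT. PT66 donor/acceptor beads in an EDTA-containing Tris pH 7.5 buffer were then added, and the signal was read after 1 h.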
RON (human), sequence (Q04912 25-1400): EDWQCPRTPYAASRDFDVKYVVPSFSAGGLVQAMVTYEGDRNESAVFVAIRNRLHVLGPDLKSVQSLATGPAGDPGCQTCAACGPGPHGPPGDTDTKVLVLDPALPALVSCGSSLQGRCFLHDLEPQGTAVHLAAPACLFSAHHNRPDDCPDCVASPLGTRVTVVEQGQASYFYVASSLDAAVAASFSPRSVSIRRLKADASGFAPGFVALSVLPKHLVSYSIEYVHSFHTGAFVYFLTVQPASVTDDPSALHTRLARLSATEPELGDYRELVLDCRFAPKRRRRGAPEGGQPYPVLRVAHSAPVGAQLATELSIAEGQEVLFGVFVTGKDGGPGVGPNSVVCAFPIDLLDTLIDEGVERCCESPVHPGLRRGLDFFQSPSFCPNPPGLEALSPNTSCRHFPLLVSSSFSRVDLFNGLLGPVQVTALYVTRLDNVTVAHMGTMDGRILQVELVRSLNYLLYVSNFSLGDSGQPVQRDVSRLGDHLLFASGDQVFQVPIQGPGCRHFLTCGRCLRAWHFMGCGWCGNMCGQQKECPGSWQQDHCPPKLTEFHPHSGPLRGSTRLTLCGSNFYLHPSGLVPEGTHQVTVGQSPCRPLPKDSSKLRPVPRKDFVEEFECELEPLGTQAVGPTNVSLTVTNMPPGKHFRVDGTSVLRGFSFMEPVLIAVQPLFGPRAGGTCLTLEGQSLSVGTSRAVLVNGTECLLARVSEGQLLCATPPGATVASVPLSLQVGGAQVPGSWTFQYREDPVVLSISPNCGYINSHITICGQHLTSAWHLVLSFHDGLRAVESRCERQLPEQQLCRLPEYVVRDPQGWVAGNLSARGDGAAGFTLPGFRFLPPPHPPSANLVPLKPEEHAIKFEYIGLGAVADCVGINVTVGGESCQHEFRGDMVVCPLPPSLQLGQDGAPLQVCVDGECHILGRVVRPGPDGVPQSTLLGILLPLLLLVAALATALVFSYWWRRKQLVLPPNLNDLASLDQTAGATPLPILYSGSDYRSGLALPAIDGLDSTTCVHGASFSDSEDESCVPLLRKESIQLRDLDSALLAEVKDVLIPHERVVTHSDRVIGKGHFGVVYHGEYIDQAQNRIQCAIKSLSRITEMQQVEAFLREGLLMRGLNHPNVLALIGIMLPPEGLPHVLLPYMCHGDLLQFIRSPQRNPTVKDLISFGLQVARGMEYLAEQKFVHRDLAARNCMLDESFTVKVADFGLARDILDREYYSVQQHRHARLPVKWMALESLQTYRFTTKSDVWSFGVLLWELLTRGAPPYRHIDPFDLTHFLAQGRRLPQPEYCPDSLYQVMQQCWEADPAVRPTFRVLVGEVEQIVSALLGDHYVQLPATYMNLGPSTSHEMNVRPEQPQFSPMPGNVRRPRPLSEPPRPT
For orientation: In Alpha technology, singlet oxygen from a donor bead excites a nearby acceptor bead.

In test [2] the target is MET (human) (Homo sapiens, UniProt P08581). In words: MET (human) AlphaScreen kinase assay, Km of ATP. Format: biochemical. In outline:
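Human MET at lot-optimised concentration in 50 mM Tris pH 7.4 buffer with 1 mM DTT, compound at 1% DMSO final; enzyme starts the reaction, 60 min at RT.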

Where [3] appears, read: AlphaScreen, Km of ATP, read-out: RON biochemical IC50.
Setting [4] is: AlphaScreen, Km of ATP, read-out: Met biochemical IC50.

MET (human), sequence (P08581 25-1390): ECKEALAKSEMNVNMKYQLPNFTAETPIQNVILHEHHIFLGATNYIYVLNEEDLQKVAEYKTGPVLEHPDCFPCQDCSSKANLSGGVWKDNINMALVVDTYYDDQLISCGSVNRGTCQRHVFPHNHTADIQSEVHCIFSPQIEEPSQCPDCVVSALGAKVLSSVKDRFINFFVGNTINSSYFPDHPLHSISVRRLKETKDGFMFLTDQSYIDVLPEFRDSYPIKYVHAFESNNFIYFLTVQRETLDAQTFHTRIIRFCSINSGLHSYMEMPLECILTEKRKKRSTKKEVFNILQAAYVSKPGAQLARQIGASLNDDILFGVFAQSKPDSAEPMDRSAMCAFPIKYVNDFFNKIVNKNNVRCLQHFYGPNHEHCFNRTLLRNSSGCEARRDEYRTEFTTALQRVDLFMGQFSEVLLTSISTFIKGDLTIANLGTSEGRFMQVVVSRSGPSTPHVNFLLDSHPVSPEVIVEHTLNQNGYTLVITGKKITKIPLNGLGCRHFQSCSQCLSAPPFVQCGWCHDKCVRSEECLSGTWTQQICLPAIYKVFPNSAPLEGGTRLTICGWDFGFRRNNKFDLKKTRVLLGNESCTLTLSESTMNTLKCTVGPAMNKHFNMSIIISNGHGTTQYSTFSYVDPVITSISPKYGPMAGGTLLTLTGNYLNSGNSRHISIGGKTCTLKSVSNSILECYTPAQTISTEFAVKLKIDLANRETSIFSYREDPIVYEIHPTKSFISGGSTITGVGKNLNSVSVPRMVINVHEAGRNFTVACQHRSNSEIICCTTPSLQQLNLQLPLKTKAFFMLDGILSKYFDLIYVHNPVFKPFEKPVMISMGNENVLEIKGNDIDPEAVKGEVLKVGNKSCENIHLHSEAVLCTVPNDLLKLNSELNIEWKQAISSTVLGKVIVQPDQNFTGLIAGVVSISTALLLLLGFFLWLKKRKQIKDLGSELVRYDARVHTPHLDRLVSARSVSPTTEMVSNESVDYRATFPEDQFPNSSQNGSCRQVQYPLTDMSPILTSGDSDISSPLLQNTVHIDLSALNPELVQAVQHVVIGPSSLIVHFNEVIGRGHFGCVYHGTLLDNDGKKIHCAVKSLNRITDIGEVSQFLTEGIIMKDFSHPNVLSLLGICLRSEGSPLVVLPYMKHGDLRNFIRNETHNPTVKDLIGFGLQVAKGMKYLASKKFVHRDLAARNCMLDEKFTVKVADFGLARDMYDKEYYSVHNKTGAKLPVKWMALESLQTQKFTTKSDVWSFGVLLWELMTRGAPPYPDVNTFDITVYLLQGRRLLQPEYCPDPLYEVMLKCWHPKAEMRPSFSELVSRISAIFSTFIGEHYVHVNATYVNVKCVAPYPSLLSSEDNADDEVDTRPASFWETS

What is called IC50 is the concentration that inhibits the measured activity by half. In the case of `C[C@@H](Oc1c(N)ncc2c(C3=CCN(C4CCC4)CC3)coc12)c1c(Cl)ccc(F)c1Cl` [Example 44, 3-(1-Cyclobutyl-1,2,3,6-tetrahydropyridin-4-yl)-7-[(R)-1-(2,6-dichloro-3-fluorophenyl)-ethoxy]-furo[3,2-c]pyridin-6-ylamine], the IC50 in test [1] (setting [3]) and in test [2] (setting [4]) was < 500 nM in each case.

Turning to `C[C@@H]1CN(C(=O)c2ccc(-c3coc4c(O[C@H](C)c5c(Cl)ccc(F)c5Cl)c(N)ncc34)cc2)C[C@H](C)O1` [Example 297, (4-{6-Amino-7-[(R)-1-(2,6-dichloro-3-fluorophenyl)ethoxy]-furo[3,2-c]pyridin-3-yl}phenyl)-(2,6-cis-dimethylmorpholin-4-yl)methanone], the concentration for half-maximal inhibition (IC50) in test [1] (setting [3]) and in test [2] (setting [4]) was 500 to 5000 nM throughout.

Regarding `CC(Oc1c(N)ncc2c(-c3cnn(C4CCNCC4)c3)coc12)c1ccc2ccccc2c1` (stereo not shown) [Example 432, 7-(1-Naphthalen-2-ylethoxy)-3-(1-piperidin-4-yl-1H-pyrazol-4-yl)furo[3,2-c]pyridin-6-ylamine], the IC50 in test [1] (setting [3]) and in test [2] (setting [4]) was 500 to 5000 nM throughout.

Take `CC(Oc1c(N)ncc2c(-c3cnn(C4CCNCC4)c3)coc12)c1cccc(C(N)=O)c1` (stereo not shown) [Example 411, 3-{1-[6-Amino-3-(1-piperidin-4-yl-1H-pyrazol-4-yl)furo[3,2-c]pyridin-7-yloxy]ethyl}benzamide]: the IC50 in test [1] (setting [3]) and in test [2] (setting [4]) was 500 to 5000 nM in each case.

As to `C[C@@H](Oc1c(N)ncc2c(C3=CCN(CC(N)=O)CC3)coc12)c1c(Cl)ccc(F)c1Cl` [Example 202, 2-(4-{6-Amino-7-[(R)-1-(2,6-dichloro-3-fluorophenyl)ethoxy]-furo[3,2-c]pyridin-3-yl}-3,6-dihydro-2H-pyridin-1-yl)-acetamide], the IC50 in test [1] (setting [3]) is 500 to 5000 nM; in test [2] (setting [4]), < 500 nM.

In the case of `CC(Oc1c(N)ncc2c(-c3cnn(C4CCNCC4)c3)coc12)c1ccc(C(N)=O)cc1` (stereo not shown) [Example 420, 4-{1-[6-Amino-3-(1-piperidin-4-yl-1H-pyrazol-4-yl)furo[3,2-c]pyridin-7-yloxy]ethyl}benzamide], the IC50 in test [1] (setting [3]) lay in the range of 5000 to 20000 nM; in test [2] (setting [4]), 500 to 5000 nM.

On to `C[C@@H](Oc1c(N)ncc2c(C3=CCN(C(=O)C4(O)CC4)CC3)coc12)c1c(Cl)ccc(F)c1Cl` [Example 19, (4-{6-Amino-7-[(R)-1-(2,6-dichloro-3-fluorophenyl)-ethoxy]-furo[3,2-c]pyridin-3-yl}-3,6-dihydro-2H-pyridin-1-yl)-(1-hydroxycyclopropyl)-methanone], for which the 50% inhibitory concentration (IC50) in test [1] (setting [3]) and in test [2] (setting [4]) was 500 to 5000 nM throughout.

Regarding `C[C@@H](Oc1c(N)ncc2c(-c3ccc(C(N)=O)s3)coc12)c1c(Cl)ccc(F)c1Cl` [Example 209, 5-{6-Amino-7-[(R)-1-(2,6-dichloro-3-fluorophenyl)ethoxy]-furo[3,2-c]pyridin-3-yl}-thiophene-2-carboxamide], the IC50 in test [1] (setting [3]) and in test [2] (setting [4]) was 500 to 5000 nM throughout.

With `C[C@@H](Oc1c(N)ncc2c(C3=CCN(C(=O)c4ccccc4)CC3)coc12)c1c(Cl)ccc(F)c1Cl` [Example 11, (4-{6-Amino-7-[(R)-1-(2,6-dichloro-3-fluorophenyl)-ethoxy]-furo[3,2-c]pyridin-3-yl}-3,6-dihydro-2H-pyridin-1-yl)-phenylmethanone], the IC50 in test [1] (setting [3]) and in test [2] (setting [4]) was 500 to 5000 nM throughout.

In the case of `C[C@@H](Oc1c(N)ncc2c(-c3cccc(NS(C)(=O)=O)c3)coc12)c1c(Cl)ccc(F)c1Cl` [Example 79, N-(3-{6-Amino-7-[(R)-1-(2,6-dichloro-3-fluorophenyl)ethoxy]-furo[3,2-c]pyridin-3-yl}phenyl)methanesulfonamide], the figures for the IC50 in test [1] (setting [3]) and in test [2] (setting [4]) were 500 to 5000 nM and < 500 nM, respectively.

Regarding `CCN1CCC(n2cc(-c3coc4c(O[C@H](C)c5c(Cl)ccc(F)c5Cl)c(N)ncc34)cn2)CC1` [Example 278, 7-[(1R)-1-(2,6-Dichloro-3-fluorophenyl)ethoxy]-3-[1-(1-ethylpiperidin-4-yl)-1H-pyrazol-4-yl]furo[3,2-c]pyridin-6-amine], the IC50 in test [1] (setting [3]) is 500 to 5000 nM; in test [2] (setting [4]), < 500 nM.

On to `CC(Oc1c(N)ncc2c(-c3cnn(C4CCNCC4)c3)coc12)c1ccccc1C(F)(F)F` (stereo not shown) [Example 346, 3-(1-Piperidin-4-yl-1H-pyrazol-4-yl)-7-[1-(2-trifluoromethyl-phenyl)ethoxy]furo[3,2-c]pyridin-6-ylamine], for which the IC50 in test [1] (setting [3]) and in test [2] (setting [4]) was 500 to 5000 nM throughout.

Regarding `C[C@@H](Oc1c(N)ncc2c(C3=CC4CCC(C3)N4C)coc12)c1c(Cl)ccc(F)c1Cl` (stereo partly drawn) [Example 164, 7-[(1R)-1-(2,6-Dichloro-3-fluorophenyl)ethoxy]-3-(8-methyl-8-azabicyclo[3.2.1]oct-2-en-3-yl)furo[3,2-c]pyridin-6-amine], the half-inhibitory concentration (IC50) in test [1] (setting [3]) and in test [2] (setting [4]) was < 500 nM each time.

Regarding `C[C@@H](Oc1c(N)ncc2c(C3=CCN(C(=O)[C@H]4CCCCN4)CC3)coc12)c1c(Cl)ccc(F)c1Cl` [Example 239, (4-{6-Amino-7-[(R)-1-(2,6-dichloro-3-fluorophenyl)ethoxy]-furo[3,2-c]pyridin-3-yl}-3,6-dihydro-2H-pyridin-1-yl)-(R)-piperidin-2-ylmethanone], the IC50 in test [1] (setting [3]) and in test [2] (setting [4]) was < 500 nM each time.

As to `C[C@@H](Oc1c(N)ncc2c(-c3ccc(N4CCOCC4)nc3)coc12)c1c(Cl)ccc(F)c1Cl` [Example 107, 7-[(R)-1-(2,6-Dichloro-3-fluorophenyl)ethoxy]-3-(6-morpholin-4-ylpyridin-3-yl)-furo[3,2-c]pyridin-6-ylamine], the IC50 in test [1] (setting [3]) and in test [2] (setting [4]) was 500 to 5000 nM in each case.

Take `C[C@@H](Oc1c(N)ncc2c(-c3ccc(NS(C)(=O)=O)cc3)coc12)c1c(Cl)ccc(F)c1Cl` [Example 76, N-(4-{6-Amino-7-[(R)-1-(2,6-dichloro-3-fluorophenyl)ethoxy]-furo[3,2-c]pyridin-3-yl}phenyl)methanesulfonamide]: the half-inhibitory concentration (IC50) is 500 to 5000 nM in test [1] (setting [3]) and < 500 nM in test [2] (setting [4]).

With `C[C@@H](Oc1c(N)ncc2c(C3=CCN(C(=O)[C@H](O)C(F)(F)F)CC3)coc12)c1c(Cl)ccc(F)c1Cl` [Example 269, (2S)-1-[4-{6-Amino-7-[(1R)-1-(2,6-dichloro-3-fluorophenyl)ethoxy]furo[3,2-c]pyridin-3-yl}-3,6-dihydropyridin-1(2H)-yl]-3,3,3-trifluoro-2-hydroxypropan-1-one], the IC50 in test [1] (setting [3]) and in test [2] (setting [4]) was 500 to 5000 nM each time.

Regarding `C[C@@H](Oc1c(N)ncc2c(C3=CCN(C(=O)C4CCCCC4)CC3)coc12)c1c(Cl)ccc(F)c1Cl` [Example 16, (4-{6-Amino-7-[(R)-1-(2,6-dichloro-3-fluorophenyl)-ethoxy]-furo[3,2-c]pyridin-3-yl}-3,6-dihydro-2H-pyridin-1-yl)-cyclohexylmethanone], the IC50 in test [1] (setting [3]) and in test [2] (setting [4]) was 500 to 5000 nM in each case.

Take `C[C@@H](Oc1c(N)ncc2c(-c3ccc(C=O)s3)coc12)c1c(Cl)ccc(F)c1Cl` [Example 210, 5-{6-Amino-7-[(R)-1-(2,6-dichloro-3-fluorophenyl)ethoxy]-furo[3,2-c]pyridin-3-yl}-thiophene-2-carbaldehyde]: the IC50 in test [1] (setting [3]) and in test [2] (setting [4]) was 500 to 5000 nM in each case.

On to `C[C@@H](Oc1c(N)ncc2c(C3=CCN(C(=O)N4CCN(CC(F)(F)F)CC4)CC3)coc12)c1c(Cl)ccc(F)c1Cl` [Example 28, (4-{6-Amino-7-[(R)-1-(2,6-dichloro-3-fluorophenyl)-ethoxy]-furo[3,2-c]pyridin-3-yl}-3,6-dihydro-2H-pyridin-1-yl)-[4-(2,2,2-trifluoroethyl)-piperazin-1-yl]-methanone], for which the IC50 in test [1] (setting [3]) and in test [2] (setting [4]) was 500 to 5000 nM throughout.

On to `CC(Oc1c(N)ncc2c(-c3cnn(C4CCNCC4)c3)coc12)c1ccc(C#N)cc1` (stereo not shown) [Example 394, 4-{1-[6-Amino-3-(1-piperidin-4-yl-1H-pyrazol-4-yl)furo[3,2-c]pyridin-7-yloxy]ethyl}benzonitrile], for which the IC50 in test [1] (setting [3]) is 500 to 5000 nM; in test [2] (setting [4]), < 500 nM.

As to `C[C@@H](Oc1c(N)ncc2c(-c3ccc(C(=O)N4CCC(O)CC4)cc3)coc12)c1c(Cl)ccc(F)c1Cl` [Example 296, (4-{6-Amino-7-[(R)-1-(2,6-dichloro-3-fluorophenyl)ethoxy]furo[3,2-c]pyridin-3-yl}phenyl)-(4-hydroxypiperidin-1-yl)methanone], the IC50 in test [1] (setting [3]) and in test [2] (setting [4]) was 500 to 5000 nM throughout.

As for `CC(Oc1c(N)ncc2c(-c3cnn(C4CCNCC4)c3)coc12)c1cc(F)cc(-c2cn[nH]c2)c1` (stereo not shown) [Example 451, 7-{1-[3-Fluoro-5-(1H-pyrazol-4-yl)phenyl]ethoxy}-3-(1-piperidin-4-yl-1H-pyrazol-4-yl)furo[3,2-c]pyridin-6-ylamine], the concentration for half-maximal inhibition (IC50) was 500 to 5000 nM in test [1] (setting [3]) and < 500 nM in test [2] (setting [4]).

As to `C[C@@H](Oc1c(N)ncc2c(-c3cnn(C4CCNCC4)c3)c(C#N)oc12)c1c(Cl)ccc(F)c1Cl` [Example 169, 6-Amino-7-[(R)-1-(2,6-dichloro-3-fluorophenyl)ethoxy]-3-(1-piperidin-4-yl-1H-pyrazol-4-yl)-furo[3,2-c]pyridine-2-carbonitrile], the IC50 in test [1] (setting [3]) and in test [2] (setting [4]) was 500 to 5000 nM throughout.

As for `C[C@@H](Oc1c(N)ncc2c(-c3ccc(C(=O)NCCN4CCOCC4)cc3)coc12)c1c(Cl)ccc(F)c1Cl` [Example 100, 4-{6-Amino-7-[(R)-1-(2,6-dichloro-3-fluorophenyl)ethoxy]-furo[3,2-c]pyridin-3-yl}-N-(2-morpholin-4-ylethyl)benzamide], the IC50 in test [1] (setting [3]) and in test [2] (setting [4]) was 500 to 5000 nM in each case.

As to `C[C@@H](Oc1c(N)ncc2c(-c3ccc(C(=O)N4CCC(=O)CC4)cc3)coc12)c1c(Cl)ccc(F)c1Cl` [Example 284, 1-(4-{6-Amino-7-[(R)-1-(2,6-dichloro-3-fluorophenyl)-ethoxy]furo[3,2-c]pyridin-3-yl}benzoyl)piperidin-4-one], the IC50 in test [1] and in test [2] was 500 to 5000 nM each time.
